From publication PMC9401487 (Clinical Cancer Research, 2021)

System: patients with advanced solid tumors
Experiment: Phase I safety and tolerability
Type: in vivo, human
[1] = Cohort 5 (N=8), 60 mg QD 7 days + carboplatin
[2] = Cohort 6 (N=7), co-dosing 60 mg QD + carboplatin days 1–3
[3] = Cohort 6: 60 mg QD days 1–3 + carboplatin AUC5 day 1, 7 patients
[4] = Cohort 7 (N=6), co-dosing 40 mg QD + carboplatin days 1 and 2

SMILES: C[C@@H]1COCCN1c1cc(C2([S@](C)(=N)=O)CC2)nc(-c2cc[nH]c3nccc2-3)n1 [ceralasertib]
- TEAE Arthralgia, Grade 1–2 [1]: 2 (25) patients, n (%)
- TEAE Arthralgia, Grade ≥3 [1]: 0 patients, n (%)
- TEAE Aspartate aminotransferase increased, Grade 1–2 [1]: 1 (13) patients, n (%)
- TEAE Aspartate aminotransferase increased, Grade ≥3 [1]: 1 (13) patients, n (%)
- TEAE Constipation, Grade 1–2 [1]: 1 (13) patients, n (%)
- TEAE Constipation, Grade ≥3 [1]: 0 patients, n (%)
- TEAE Contusion, Grade 1–2 [1]: 0 patients, n (%)
- TEAE Contusion, Grade ≥3 [1]: 0 patients, n (%)
- TEAE Cough, Grade 1–2 [1]: 0 patients, n (%)
- TEAE Cough, Grade ≥3 [1]: 0 patients, n (%)
- TEAE Decreased appetite, Grade 1–2 [1]: 2 (25) patients, n (%)
- TEAE Decreased appetite, Grade ≥3 [1]: 0 patients, n (%)
- TEAE Diarrhea, Grade 1–2 [1]: 1 (13) patients, n (%)
- TEAE Diarrhea, Grade ≥3 [1]: 0 patients, n (%)
- TEAE Dizziness, Grade 1–2 [1]: 2 (25) patients, n (%)
- TEAE Dizziness, Grade ≥3 [1]: 0 patients, n (%)
- TEAE Dyspnea, Grade 1–2 [1]: 0 patients, n (%)
- TEAE Dyspnea, Grade ≥3 [1]: 0 patients, n (%)
- TEAE Fatigue, Grade 1–2 [1]: 3 (38) patients, n (%)
- TEAE Fatigue, Grade ≥3 [1]: 0 patients, n (%)
- TEAE Hypocalcemia, Grade 1–2 [1]: 2 (25) patients, n (%)
- TEAE Hypocalcemia, Grade ≥3 [1]: 0 patients, n (%)
- TEAE Insomnia, Grade 1–2 [1]: 0 patients, n (%)
- TEAE Insomnia, Grade ≥3 [1]: 0 patients, n (%)
- TEAE Lower respiratory tract infection, Grade 1–2 [1]: 1 (13) patients, n (%)
- TEAE Lower respiratory tract infection, Grade ≥3 [1]: 1 (13) patients, n (%)
- TEAE Nausea, Grade 1–2 [1]: 4 (50) patients, n (%)
- TEAE Nausea, Grade ≥3 [1]: 0 patients, n (%)
- TEAE Neutropenia, Grade 1–2 [1]: 0 patients, n (%)
- TEAE Neutropenia, Grade ≥3 [1]: 0 patients, n (%)
- TEAE Neutrophil count decreased, Grade 1–2 [1]: 0 patients, n (%)
- TEAE Neutrophil count decreased, Grade ≥3 [1]: 1 (13) patients, n (%)
- TEAE Platelet count decreased, Grade 1–2 [1]: 1 (13) patients, n (%)
- TEAE Platelet count decreased, Grade ≥3 [1]: 0 patients, n (%)
- TEAE Pyrexia, Grade 1–2 [1]: 2 (25) patients, n (%)
- TEAE Pyrexia, Grade ≥3 [1]: 0 patients, n (%)
- TEAE Thrombocytopenia, Grade 1–2 [1]: 4 (50) patients, n (%)
- TEAE Thrombocytopenia, Grade ≥3 [1]: 2 (25) patients, n (%)
- TEAE Upper respiratory tract infection, Grade 1–2 [1]: 0 patients, n (%)
- TEAE Upper respiratory tract infection, Grade ≥3 [1]: 0 patients, n (%)
- TEAE Vomiting, Grade 1–2 [1]: 0 patients, n (%)
- TEAE Vomiting, Grade ≥3 [1]: 0 patients, n (%)
- TEAE White blood cell count decreased, Grade 1–2 [1]: 0 patients, n (%)
- TEAE White blood cell count decreased, Grade ≥3 [1]: 1 (13) patients, n (%)
- TEAE Abdominal pain, Grade 1–2 [2]: 1 (14) patients, n (%)
- TEAE Abdominal pain, Grade ≥3 [2]: 0 patients, n (%)
- TEAE Alanine aminotransferase increased, Grade 1–2 [2]: 0 patients, n (%)
- TEAE Alanine aminotransferase increased, Grade ≥3 [2]: 0 patients, n (%)
- TEAE Anemia, Grade 1–2 [2]: 2 (29) patients, n (%)
- TEAE Anemia, Grade ≥3 [2]: 4 (57) patients, n (%)
- TEAE Any AE, Grade 1–2 [2]: 0 patients, n (%)
- TEAE Any AE, Grade ≥3 [2]: 7 (100) patients, n (%)
- TEAE Arthralgia, Grade 1–2 [2]: 0 patients, n (%)
- TEAE Arthralgia, Grade ≥3 [2]: 0 patients, n (%)
- TEAE Aspartate aminotransferase increased, Grade 1–2 [2]: 0 patients, n (%)
- TEAE Aspartate aminotransferase increased, Grade ≥3 [2]: 0 patients, n (%)
- TEAE Constipation, Grade 1–2 [2]: 1 (14) patients, n (%)
- TEAE Constipation, Grade ≥3 [2]: 0 patients, n (%)
- TEAE Contusion, Grade 1–2 [2]: 0 patients, n (%)
- TEAE Contusion, Grade ≥3 [2]: 0 patients, n (%)
- TEAE Cough, Grade 1–2 [2]: 0 patients, n (%)
- TEAE Cough, Grade ≥3 [2]: 0 patients, n (%)
- TEAE Decreased appetite, Grade 1–2 [2]: 0 patients, n (%)
- TEAE Decreased appetite, Grade ≥3 [2]: 0 patients, n (%)
- TEAE Diarrhea, Grade 1–2 [2]: 1 (14) patients, n (%)
- TEAE Diarrhea, Grade ≥3 [2]: 0 patients, n (%)
- TEAE Dizziness, Grade 1–2 [2]: 1 (14) patients, n (%)
- TEAE Dizziness, Grade ≥3 [2]: 0 patients, n (%)
- TEAE Dyspnea, Grade 1–2 [2]: 1 (14) patients, n (%)
- TEAE Dyspnea, Grade ≥3 [2]: 0 patients, n (%)
- TEAE Fatigue, Grade 1–2 [2]: 1 (14) patients, n (%)
- TEAE Fatigue, Grade ≥3 [2]: 0 patients, n (%)
- TEAE Hypocalcemia, Grade 1–2 [2]: 1 (14) patients, n (%)
- TEAE Hypocalcemia, Grade ≥3 [2]: 0 patients, n (%)
- TEAE Insomnia, Grade 1–2 [2]: 2 (29) patients, n (%)
- TEAE Insomnia, Grade ≥3 [2]: 0 patients, n (%)
- TEAE Lower respiratory tract infection, Grade 1–2 [2]: 1 (14) patients, n (%)
- TEAE Lower respiratory tract infection, Grade ≥3 [2]: 0 patients, n (%)
- TEAE Nausea, Grade 1–2 [2]: 6 (86) patients, n (%)
- TEAE Nausea, Grade ≥3 [2]: 1 (14) patients, n (%)
- TEAE Neutropenia, Grade 1–2 [2]: 1 (14) patients, n (%)
- TEAE Neutropenia, Grade ≥3 [2]: 5 (71) patients, n (%)
- TEAE Neutrophil count decreased, Grade 1–2 [2]: 0 patients, n (%)
- TEAE Neutrophil count decreased, Grade ≥3 [2]: 1 (14) patients, n (%)
- TEAE Platelet count decreased, Grade 1–2 [2]: 0 patients, n (%)
- TEAE Platelet count decreased, Grade ≥3 [2]: 0 patients, n (%)
- TEAE Pyrexia, Grade 1–2 [2]: 1 (14) patients, n (%)
- TEAE Pyrexia, Grade ≥3 [2]: 0 patients, n (%)
- TEAE Thrombocytopenia, Grade 1–2 [2]: 2 (29) patients, n (%)
- TEAE Thrombocytopenia, Grade ≥3 [2]: 4 (57) patients, n (%)
- TEAE Upper respiratory tract infection, Grade 1–2 [2]: 0 patients, n (%)
- TEAE Upper respiratory tract infection, Grade ≥3 [2]: 0 patients, n (%)
- TEAE Vomiting, Grade 1–2 [2]: 4 (57) patients, n (%)
- TEAE Vomiting, Grade ≥3 [2]: 1 (14) patients, n (%)
- TEAE White blood cell count decreased, Grade 1–2 [2]: 0 patients, n (%)
- TEAE White blood cell count decreased, Grade ≥3 [2]: 2 (29) patients, n (%)
- Number of DLTs [3]: no DLTs
- SRC decision (tolerability) [3]: not tolerated beyond cycle 1
- TEAE Abdominal pain, Grade 1–2 [4]: 2 (33) patients, n (%)
- TEAE Abdominal pain, Grade ≥3 [4]: 0 patients, n (%)
- TEAE Alanine aminotransferase increased, Grade 1–2 [4]: 1 (17) patients, n (%)
- TEAE Alanine aminotransferase increased, Grade ≥3 [4]: 0 patients, n (%)
- TEAE Anemia, Grade 1–2 [4]: 1 (17) patients, n (%)
- TEAE Anemia, Grade ≥3 [4]: 4 (67) patients, n (%)
- TEAE Any AE, Grade 1–2 [4]: 1 (17) patients, n (%)
- TEAE Any AE, Grade ≥3 [4]: 5 (83) patients, n (%)
- TEAE Arthralgia, Grade 1–2 [4]: 1 (17) patients, n (%)
- TEAE Arthralgia, Grade ≥3 [4]: 0 patients, n (%)
- TEAE Aspartate aminotransferase increased, Grade 1–2 [4]: 1 (17) patients, n (%)
- TEAE Aspartate aminotransferase increased, Grade ≥3 [4]: 0 patients, n (%)
